From the NIST ThermoML archive (doi:10.1016/j.jct.2005.10.009)
± gives the expanded uncertainty stated by the source.

Assays:
[1] = 101.33 kPa, Liquid; for speed of sound: Pulse-echo method; for mass density: Pycnometric method
[2] = molar heat capacity at constant pressure; conditions: 101 kPa, Liquid, Small sample (50 mg) DSC

CCCCCCCCCCO [decan-1-ol]
Conditions | mass density [kg/m3] | molar heat capacity at constant pressure [J/K/mol] | speed of sound [m/s]
[1], 293.1 K | – | – | 1397.2 ± 1.6
[1], 293.15 K | 829.77 ± 0.67 | – | –
[1], 298.07 K | – | – | 1380 ± 1.6
[1], 298.15 K | 826.38 ± 0.67 | – | –
[1], 303.04 K | – | – | 1362.8 ± 1.6
[1], 303.15 K | 822.98 ± 0.67 | – | –
[1], 308.04 K | – | – | 1345.8 ± 1.6
[1], 308.15 K | 819.62 ± 0.67 | – | –
[1], 313.01 K | – | – | 1329 ± 1.6
[1], 313.15 K | 816.15 ± 0.68 | – | –
[1], 318.15 K | 812.67 ± 0.68 | – | –
[1], 318.18 K | – | – | 1311.7 ± 1.6
[2], 290.91 K | – | 364.49 ± 5.7 | –
[2], 291.15 K | – | 364.8 ± 5.7 | –
[2], 292.15 K | – | 366.05 ± 5.7 | –
[2], 293.15 K | – | 367.19 ± 5.7 | –
[2], 294.15 K | – | 368.25 ± 5.7 | –
[2], 295.15 K | – | 369.35 ± 5.7 | –
[2], 296.15 K | – | 370.35 ± 5.7 | –
[2], 297.15 K | – | 371.6 ± 5.8 | –
[2], 298.15 K | – | 372.77 ± 5.8 | –
[2], 299.15 K | – | 373.71 ± 5.8 | –
[2], 300.15 K | – | 374.91 ± 5.8 | –
[2], 301.15 K | – | 375.89 ± 5.8 | –
[2], 302.15 K | – | 377.05 ± 5.8 | –
[2], 303.15 K | – | 378.2 ± 5.9 | –
[2], 304.15 K | – | 379.47 ± 5.9 | –
[2], 305.15 K | – | 380.58 ± 5.9 | –
[2], 306.15 K | – | 381.75 ± 5.9 | –
[2], 307.15 K | – | 382.43 ± 5.9 | –
[2], 308.15 K | – | 384.6 ± 6 | –
[2], 309.15 K | – | 385.42 ± 6 | –
[2], 310.15 K | – | 386.61 ± 6 | –
[2], 311.15 K | – | 387.89 ± 6 | –
[2], 312.15 K | – | 389.03 ± 6 | –
[2], 313.15 K | – | 390.28 ± 6 | –
[2], 314.15 K | – | 391.58 ± 6.1 | –
[2], 315.15 K | – | 392.8 ± 6.1 | –
[2], 316.15 K | – | 394.11 ± 6.1 | –
[2], 317.15 K | – | 395.3 ± 6.1 | –
[2], 318.15 K | – | 396.66 ± 6.2 | –
[2], 318.39 K | – | 396.93 ± 6.2 | –

CCCCCCC [heptane]
[1]
Conditions | mass density [kg/m3] | speed of sound [m/s]
293.13 K | – | 1151.9 ± 1.2
293.15 K | 683.81 ± 0.62 | –
298.12 K | – | 1130.3 ± 1.2
298.15 K | 679.6 ± 0.62 | –
303.1 K | – | 1108.8 ± 1.2
303.15 K | 675.38 ± 0.63 | –
308.07 K | – | 1087.5 ± 1.2
308.15 K | 671.05 ± 0.64 | –
313.03 K | – | 1066.3 ± 1.2
313.15 K | 666.78 ± 0.64 | –
318.15 K | 662.42 ± 0.65 | –
318.33 K | – | 1043.9 ± 1.2
